The source of these data is patent US20160002248A1, “GLS1 INHIBITORS FOR TREATING DISEASE” (Board of Regents, The University of Texas System, priority 2014, published 2016).

Bounds are passed on as bounds.

Assay [1] deals with T1, purified recombinant human GAC (GLS1) (Homo sapiens, UniProt O94925).
T1 sequence (O94925 55-598 isoform O94925-3 limits assumed): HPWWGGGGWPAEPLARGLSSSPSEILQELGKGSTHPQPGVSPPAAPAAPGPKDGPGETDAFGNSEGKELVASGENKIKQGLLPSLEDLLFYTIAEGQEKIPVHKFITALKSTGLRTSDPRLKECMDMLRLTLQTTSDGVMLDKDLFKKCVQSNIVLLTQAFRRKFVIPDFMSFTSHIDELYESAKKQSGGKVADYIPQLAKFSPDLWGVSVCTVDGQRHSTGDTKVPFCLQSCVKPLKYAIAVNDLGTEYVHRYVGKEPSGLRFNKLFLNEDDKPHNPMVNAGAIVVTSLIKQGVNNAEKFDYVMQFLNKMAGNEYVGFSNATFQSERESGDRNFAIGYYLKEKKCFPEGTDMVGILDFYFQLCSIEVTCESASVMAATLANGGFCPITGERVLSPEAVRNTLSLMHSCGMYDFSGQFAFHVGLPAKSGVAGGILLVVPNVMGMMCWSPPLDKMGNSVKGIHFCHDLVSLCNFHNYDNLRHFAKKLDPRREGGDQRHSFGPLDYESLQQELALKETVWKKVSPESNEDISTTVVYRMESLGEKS
The assay is described as follows: GLS1 Enzymatic Activity Assay (dual-coupled enzymatic assay). Type of assay: biochemical. In outline:
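In this coupled fluorometric format, phosphate-activated GAC (2 nM, 50 mM phosphate) is pre-exposed to compound for 10 min before 1 mM glutamine addition. Product is tracked as resorufin (530/590 nm) over time or at 20 min, and potency is derived by logistic fitting.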

The next assay concerns A549 cells. Kind of assay: Proliferation Assay (A549 cell viability, Cell Titer Fluor). The note with it: Homo sapiens, 72 hours. Type of assay: cell-based. Summed up:
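A549 cells seeded at 1000 cells/well, left 24 h, then exposed to compound for 72 h at 37 °C, 5% CO2, final DMSO 0.5% (v/v). Viability read by Cell Titer Fluor fluorescence; EC50 from four-parameter logistic fit.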

As for `N#Cc1ccc(-c2c(C3CC3)[nH]c3nnc(CCCCn4cc(C(=O)NCc5ccccn5)nn4)cc23)cc1` [Example 124, 1-{4-[5-(4-cyanophenyl)-6-cyclopropyl-7H-pyrrolo[2,3-c]pyridazin-3-yl]butyl}-N-(pyridin-2-ylmethyl)-1H-1,2,3-triazole-4-carboxamide], in assay [1], the IC50 was under 100 nM. In the assay on A549 cells, the EC50 was 500 to 5000 nM.

For the compound `O=C(NCc1ccccn1)c1cn(CCCCc2cc3c(-c4ccc(F)cc4)c(C4CC4)[nH]c3nn2)nn1` [Example 125, 1-{4-[6-cyclopropyl-5-(4-fluorophenyl)-7H-pyrrolo[2,3-c]pyridazin-3-yl]butyl}-N-(pyridin-2-ylmethyl)-1H-1,2,3-triazole-4-carboxamide], the half-maximal inhibitory concentration (IC50) in assay [1] is under 100 nM. This compound also displayed an EC50 in the assay on A549 cells of 100 to 500 nM.

As for `O=C(NCc1ccccn1)c1cn(CCCCc2cc3c(Cc4ccccn4)c(C4CC4)[nH]c3nn2)nn1` [Example 126, 1-{4-[6-cyclopropyl-5-(pyridin-2-ylmethyl)-7H-pyrrolo[2,3-c]pyridazin-3-yl]butyl}-N-(pyridin-2-ylmethyl)-1H-1,2,3-triazole-4-carboxamide], in assay [1], the IC50 fell in the range of 100 to 500 nM. Further, the EC50 with A549 cells was in the range of 500 to 5000 nM.

Turning to `O=C(NCc1cc(OC(F)(F)F)ccc1F)c1cn(CCCCc2cc3c(Cc4ccccn4)c(C4CC4)[nH]c3nn2)nn1` [Example 127, 1-{4-[6-cyclopropyl-5-(pyridin-2-ylmethyl)-7H-pyrrolo[2,3-c]pyridazin-3-yl]butyl}-N-{[2-fluoro-5-(trifluoromethoxy)phenyl]methyl}-1H-1,2,3-triazole-4-carboxamide], the IC50 in assay [1] is under 100 nM. In addition, in the assay on A549 cells, the EC50 lay in the range of 100 to 500 nM.

With `O=C(NCc1cc(OC(F)(F)F)ccc1F)c1cn(CCCCc2cc3c(-c4ccncc4)c(C4CC4)[nH]c3nn2)nn1` [Example 128, 1-{4-[6-cyclopropyl-5-(pyridin-4-yl)-7H-pyrrolo[2,3-c]pyridazin-3-yl]butyl)-N-{[2-fluoro-5-(trifluoromethoxy)phenyl]methyl}-1H-1,2,3-triazole-4-carboxamide], the IC50 in assay [1] is under 100 nM. For the same compound, in the assay on A549 cells, the EC50 is under 100 nM.

Consider `O=C(NCc1ccccn1)c1cn(CCCCc2cc3c(-c4cncnc4)c(C4CC4)[nH]c3nn2)nn1` [Example 129, 1-(4-(6-cyclopropyl-5-(pyrimidin-5-yl)-7H-pyrrolo[2,3-c]pyridazin-3-yl)butyl)-N-(pyridin-2-ylmethyl)-1H-1,2,3-triazole-4-carboxamide], for which the IC50 in assay [1] lay in the range of 100 to 500 nM. The EC50 with A549 cells is 500 to 5000 nM.

Turning to `CS(=O)(=O)N1CC(c2cc3cc(CCCCn4cc(C(=O)NCc5cc(OC(F)(F)F)ccc5F)nn4)nnc3[nH]2)C1` [Example 130, N-{[2-fluoro-5-(trifluoromethoxy)phenyl]methyl}-1-{4-[6-(1-methanesulfonylazetidin-3-yl)-7H-pyrrolo[2,3-c]pyridazin-3-yl]butyl}-1H-1,2,3-triazole-4-carboxamide], the IC50 in assay [1] is under 100 nM. In the assay on A549 cells, this compound showed an EC50 of 100 to 500 nM.

Consider `CC(C)OC(=O)N1CC(c2cc3cc(CCCCn4cc(C(=O)NCc5cc(OC(F)(F)F)ccc5F)nn4)nnc3[nH]2)C1` [Example 131, propan-2-yl 3-(3-{4-[4-({[2-fluoro-5-(trifluoromethoxy)phenyl]methyl}carbamoyl)-1H-1,2,3-triazol-1-yl]butyl}-7H-pyrrolo[2,3-c]pyridazin-6-yl)azetidine-1-carboxylate], for which the IC50 in assay [1] was under 100 nM. The compound further gave an EC50 with A549 cells of under 100 nM.

As to `CCOC(=O)N1CC(c2cc3cc(CCCCn4cc(C(=O)NCc5cc(OC(F)(F)F)ccc5F)nn4)nnc3[nH]2)C1` [Example 132, ethyl 3-(3-{4-[4-({[2-fluoro-5-(trifluoromethoxy)phenyl]methyl}carbamoyl)-1H-1,2,3-triazol-1-yl]butyl)-7H-pyrrolo[2,3-c]pyridazin-6-yl)azetidine-1-carboxylate], the IC50 in assay [1] is under 100 nM. The compound also had an EC50 in the assay with A549 cells of under 100 nM.

`CC(C)(O)C(=O)N1CC(c2cc3cc(CCCCn4cc(C(=O)NCc5cc(OC(F)(F)F)ccc5F)nn4)nnc3[nH]2)C1` [Example 133, N-{[2-fluoro-5-(trifluoromethoxy)phenyl]methyl}-1-(4-{6-[1-(2-hydroxy-2-methylpropanoyl)azetidin-3-yl]-7H-pyrrolo[2,3-c]pyridazin-3-yl}butyl)-1H-1,2,3-triazole-4-carboxamide]: the IC50 in assay [1] was under 100 nM. In the assay on A549 cells, this compound came in with an EC50 of 100 to 500 nM.

In the case of `O=C(NCc1ccccn1)c1cn(CCCCc2cc3cc(-c4ccccc4F)[nH]c3nn2)nn1` [Example 134, 1-(4-(6-(2-fluorophenyl)-7H-pyrrolo[2,3-c]pyridazin-3-yl)butyl)-N-(pyridin-2-ylmethyl)-1H-1,2,3-triazole-4-carboxamide], the IC50 in assay [1] is under 100 nM. The same compound registered a concentration for a half-maximal effect (EC50) with A549 cells of under 100 nM.

As for `Cn1nccc1-c1c(C2CC2)[nH]c2nnc(CCCCn3cc(C(=O)NCc4ccccn4)nn3)cc12` [Example 135, 1-{4-[6-cyclopropyl-5-(1-methyl-1H-pyrazol-5-yl)-7H-pyrrolo[2,3-c]pyridazin-3-yl]butyl}-N-(pyridin-2-ylmethyl)-1H-1,2,3-triazole-4-carboxamide], the IC50 in assay [1] was under 100 nM. Also, the 50% effective concentration (EC50) with A549 cells was 500 to 5000 nM.

As to `CS(=O)(=O)c1cccc(-c2c(C3CC3)[nH]c3nnc(CCCCn4cc(C(=O)NCc5ccccn5)nn4)cc23)c1` [Example 136, 1-{4-[6-cyclopropyl-5-(3-methanesulfonylphenyl)-7H-pyrrolo[2,3-c]pyridazin-3-yl]butyl}-N-(pyridin-2-ylmethyl)-1H-1,2,3-triazole-4-carboxamide], the IC50 in assay [1] is under 100 nM. Moreover, the EC50 in the assay with A549 cells is 500 to 5000 nM.

Regarding `CS(=O)(=O)Nc1cccc(-c2c(C3CC3)[nH]c3nnc(CCCCn4cc(C(=O)NCc5ccccn5)nn4)cc23)c1` [Example 137, 1-{4-[6-cyclopropyl-5-(3-methanesulfonamidophenyl)-7H-pyrrolo[2,3-c]pyridazin-3-yl]butyl}-N-(pyridin-2-ylmethyl)-1H-1,2,3-triazole-4-carboxamide], the IC50 in assay [1] is under 100 nM. For the same compound, in the assay on A549 cells, the EC50 was 500 to 5000 nM.

With `O=C(NCc1ccccn1)c1cn(CCCCc2cc3c(-c4ccc(O)cc4)c(C4CC4)[nH]c3nn2)nn1` [Example 138, 1-{4-[6-cyclopropyl-5-(4-hydroxyphenyl)-7H-pyrrolo[2,3-c]pyridazin-3-yl]butyl}-N-(pyridin-2-ylmethyl)-1H-1,2,3-triazole-4-carboxamide], in assay [1], the IC50 is under 100 nM. The 50% effective concentration (EC50) with A549 cells fell in the range of 500 to 5000 nM.

In the case of `O=C(NCc1ccccn1)c1cn(CCCCc2cc3c(-c4ccsc4)c(C4CC4)[nH]c3nn2)nn1` [Example 139, 1-{4-[6-cyclopropyl-5-(thiophen-3-yl)-7H-pyrrolo[2,3-c]pyridazin-3-yl]butyl}-N-(pyridin-2-ylmethyl)-1H-1,2,3-triazole-4-carboxamide], in assay [1], the IC50 was under 100 nM. Moreover, the EC50 with A549 cells lay within 100 to 500 nM.

As for `N#CCC(=O)N1CC(c2cc3cc(CCCCn4cc(C(=O)NCc5cc(OC(F)(F)F)ccc5F)nn4)nnc3[nH]2)C1` [Example 140, 1-(4-{6-[1-(2-cyanoacetyl)azetidin-3-yl]-7H-pyrrolo[2,3-c]pyridazin-3-yl}butyl)-N-{[2-fluoro-5-(trifluoromethoxy)phenyl]methyl}-1H-1,2,3-triazole-4-carboxamide], the IC50 in assay [1] is under 100 nM. This compound gave an EC50 in the assay with A549 cells of 500 to 5000 nM.

Consider `O=C(NCc1cc(OC(F)(F)F)ccc1F)c1cn(CCCCc2cc3cc(C4CN(C(=O)CC(F)(F)F)C4)[nH]c3nn2)nn1` [Example 141, N-{[2-fluoro-5-(trifluoromethoxy)phenyl]methyl}-1-(4-{6-[1-(3,3,3-trifluoropropanoyl)azetidin-3-yl]-7H-pyrrolo[2,3-c]pyridazin-3-yl}butyl)-1H-1,2,3-triazole-4-carboxamide], for which the IC50 in assay [1] was under 100 nM. The same compound came in with a 50% effective concentration (EC50) in the assay with A549 cells of 100 to 500 nM.

Consider `O=C(NCc1cccc(OC(F)(F)F)c1)c1cn(CCCCc2cc3c(-c4ccccn4)c(C4CC4)[nH]c3nn2)nn1` [Example 143, 1-{4-[6-cyclopropyl-5-(pyridin-2-yl)-7H-pyrrolo[2,3-c]pyridazin-3-yl]butyl}-N-{[3-(trifluoromethoxy)phenyl]methyl}-1H-1,2,3-triazole-4-carboxamide], for which the IC50 in assay [1] was under 100 nM. The compound further gave an EC50 with A549 cells of under 100 nM.

`O=C(NCc1cc(OC(F)(F)F)ccc1F)c1cn(CCCCc2cc3c(-c4ccccn4)c(C4CC4)[nH]c3nn2)nn1` [Example 144, 1-{4-[6-cyclopropyl-5-(pyridin-2-yl)-7H-pyrolo[2,3-c]pyridazin-3-yl]butyl}-N-{[2-fluoro-5-(trifluoromethoxy)phenyl]methyl}-1H-1,2,3-triazole-4-carboxamide]: the IC50 in assay [1] is under 100 nM. Besides, in the assay on A549 cells, the EC50 was under 100 nM.

On to `O=C(NCc1ccccn1)c1cn(CCCCc2cc3c(-c4ccc5c(c4)OCO5)c(C4CC4)[nH]c3nn2)nn1` [Example 145, 1-{4-[5-(2H-1,3-benzodioxol-5-yl)-6-cyclopropyl-7H-pyrrolo[2,3-c]pyridazin-3-yl]butyl}-N-(pyridin-2-ylmethyl)-1H-1,2,3-triazole-4-carboxamide], for which the IC50 in assay [1] was under 100 nM. The compound also came in with an EC50 in the assay on A549 cells of 100 to 500 nM.
